Measured values reported in article PMC12390684 (Viruses, 2025).

Biological target: IN-GCN2 interaction (6xHis-IN / GST-GCN2) (UniProt P04585+Q9P2K8)
Assay: biochemical
Format: binding, HIV-1 IN; human GCN2
Details: for IN-GCN2 interaction (%): screen, single dose 100 µM, single replicate, residual AlphaLISA signal normalized to DMSO control; for AlphaLISA signal in dose-response: compared to DMSO

IN-GCN2 interaction (6xHis-IN / GST-GCN2), sequence (Q9P2K8 192-1024, other chains not shown): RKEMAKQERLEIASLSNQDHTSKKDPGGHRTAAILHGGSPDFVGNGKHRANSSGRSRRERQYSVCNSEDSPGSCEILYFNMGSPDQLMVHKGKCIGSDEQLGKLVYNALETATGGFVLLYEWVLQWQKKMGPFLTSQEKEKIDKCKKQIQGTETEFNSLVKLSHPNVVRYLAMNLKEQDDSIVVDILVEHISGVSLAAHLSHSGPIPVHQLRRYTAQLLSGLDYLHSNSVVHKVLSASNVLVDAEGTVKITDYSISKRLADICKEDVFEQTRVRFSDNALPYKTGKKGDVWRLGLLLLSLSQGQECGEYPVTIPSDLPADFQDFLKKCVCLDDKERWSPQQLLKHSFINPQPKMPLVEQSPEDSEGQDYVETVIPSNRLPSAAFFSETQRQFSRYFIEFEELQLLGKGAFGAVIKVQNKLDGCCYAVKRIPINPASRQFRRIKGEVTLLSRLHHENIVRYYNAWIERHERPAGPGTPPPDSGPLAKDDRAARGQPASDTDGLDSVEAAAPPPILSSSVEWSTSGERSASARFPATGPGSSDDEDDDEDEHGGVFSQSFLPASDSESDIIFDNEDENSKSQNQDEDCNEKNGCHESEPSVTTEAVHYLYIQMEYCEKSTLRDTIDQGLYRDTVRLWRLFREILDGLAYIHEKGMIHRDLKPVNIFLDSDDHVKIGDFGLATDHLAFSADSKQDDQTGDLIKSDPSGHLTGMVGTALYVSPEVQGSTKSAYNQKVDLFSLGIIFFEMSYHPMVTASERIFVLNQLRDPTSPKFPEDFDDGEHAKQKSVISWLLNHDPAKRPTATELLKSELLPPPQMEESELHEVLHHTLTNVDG

SMILES | IN-GCN2 interaction (%) | further results
COc1cc2c3c(c1O)-c1ccccc1C[C@@H]3N(C)CC2 [NSC785170] |  | IN-GCN2 interaction (%) (listed as 785170): 99.49%
COc1cc(OC)c(C(=O)/C=C/c2ccc(OC)c(OC)c2)c(OC)c1 [NSC75527] | 89.20 | 
c1cc2c(c3c1C[C@@H]1NCCc4cc5c(c-3c41)OCO5)OCO2 [NSC785157] | 72.19 | 
O=C(O)CCCCCCC[C@@H](O)[C@@H](O)CCCCCCO [NSC7668] | 129.82 | 
COC(=O)[C@@H]1[C@H]2C[C@H]3c4[nH]c5ccccc5c4CCN3C[C@@H]2CC[C@@H]1O [NSC19509] | 68.27 | 
C=C(NC(=O)C(=C)NC(=O)c1csc(C2=N[C@@H]3c4csc(n4)[C@H]4NC(=O)c5csc(n5)[C@H]([C@](C)(O)[C@@H](C)O)NC(=O)[C@H]5CSC(=N5)/C(=C/C)NC(=O)[C@H]([C@@H](C)O)NC(=O)c5csc(n5)[C@]3(CC2)NC(=O)[C@H](C)NC(=O)C(=C)NC(=O)C(=C)NC(=O)[C@H](C(C)C)N[C@@H]2C=Cc3c([C@H](C)O)cc(nc3[C@H]2O)C(=O)O[C@@H]4C)n1)C(N)=O [NSC285116] | 79.00 | 
COc1cc(/C=C/C(=O)CC(=O)/C=C/c2ccc(O)c(OC)c2)ccc1O [NSC32982] | 15.01 | 
COc1ccc2c(=O)oc3c(OC)cc(CCN(C)C)c4c(=O)oc1c2c34 [NSC76022] |  | AlphaLISA signal in dose-response (at 33 µM): 120%; AlphaLISA signal in dose-response (at 100 µM): 200%
C=C1C(=O)O[C@H]2[C@H]1CC/C(C)=C/CC[C@@]1(C)O[C@@H]21 [NSC157035] | 97.44 | 
CC[C@H]1OC(=O)[C@H](C)[C@@H](O[C@H]2C[C@@](C)(O)[C@@H](O)[C@H](C)O2)[C@H](C)[C@@H](O)[C@](C)(O)C[C@@H](C)C(=O)[C@H](C)[C@@H](O)[C@H]1C [NSC209870] | 103.21 | 
COC1CC(C)C(OC)c2cc(O)cc(c2O)NC(=O)/C(C)=C\C=C/C(C)C(OC(N)=O)/C(C)=C\C(C)C1OC (stereo not shown) [NSC330500] | 77.16 | 
CC1C(=O)OC2CCN3CC4OC4(COC(=O)C(C)(O)C1(C)O)C23 (stereo not shown) [NSC113087] | 97.53 | 
COc1cccc(C=O)c1O [NSC2150] | 88.39 | 
COC(=O)C1C2CC3c4[nH]c5cc(OC)ccc5c4CCN3CC2CC(OC(=O)CCc2cc(OC)c(OC)c(OC)c2)C1OC (stereo not shown) [NSC29854] | 63.08 | 
NCCOC[C@H](N)C(=O)O [NSC136035] | 90.45 | 
C=C(C)[C@H]1Cc2c(ccc3c2O[C@@H]2COc4cc(OC)c(OC)cc4[C@@H]2C3=O)O1 [NSC26258] | 55.12 | 
C[C@@H]1[C@H](O)[C@@H](C)/C=C/C=C/CC/C=C/C=C/C=C/C=C/C(O[C@H]2O[C@H](C)[C@@H](O)[C@H](N)[C@@H]2O)CC2O[C@](O)(CC(O)C(O)CCC(O)CC(O)CC(O)CC(=O)O[C@H]1C)CC(O)C2C(=O)O (stereo partly shown) [NSC150817] | 68.70 | 
CC(=O)O[C@@H]1[C@@H](O)C2=C3[C@]4(C)[C@@H]1C(C)(C)C(=O)C[C@@H]4[C@]3(O)[C@H](OC(C)=O)[C@@]1(C[C@@H]1C)C2=O [NSC270914] | 122.29 | 
CN(C)c1ccc2c(SCC(=O)OCC(=O)[C@@]3(O)CC[C@H]4[C@@H]5CCC6=CC(=O)C=C[C@]6(C)[C@H]5C(=O)C[C@@]43C)c3ccc(N(C)C)cc3nc2c1 [NSC337851] | 15.16 | 

SMILES | IN-GCN2 interaction (%) | further results
COC(=O)/C(=C1/OC(=O)C(c2ccccc2)=C1O)c1ccccc1 [NSC5897] | 95.33 | 
CC(=O)O[C@H]1C[C@]2(O)[C@@H]3CC[C@@H]4C[C@@H](O)CC[C@]4(C)[C@H]3CC[C@]2(C)[C@H]1C1=CC(=O)OC1 [NSC148790] | 114.66 | 
O=c1[nH]cnc2c([C@@H]3O[C@H](CO)[C@@H](O)[C@H]3O)[nH]nc12 [NSC106486] | 77.11 | 
CCCn1cc2c3c(cccc31)[C@H]1C[C@@H](C)CN(C)[C@@H]1C2.O=C(O)C(O)C(O)C(=O)O [NSC332294] | 41.41 | 
COc1ccc2c3c([nH]c2c1)[C@H]1C[C@H]2[C@H](C[C@@H](O)[C@H](OC)[C@H]2C(=O)O)CN1CC3 [NSC81463] | 97.85 | 
COc1ccc2c(c1OC)C(=O)O[C@@H]2[C@H]1c2c(cc3c(c2OC)OCO3)CCN1C [NSC5366] | 132.74 | 
CC(C)C[C@H](N)C(=O)O [NSC46709] | 84.16 | 
CO[C@H]1[C@H](O)[C@@H](O)[C@H](n2c3c(Cl)cccc3c3c4c(c5c6cccc(Cl)c6[nH]c5c32)C(=O)NC4=O)O[C@@H]1CO [NSC359079] | 55.24 | 
COc1cc2c(c(O)c1OC)C[C@H]1c3c(c(OC)c4c(c3-2)OCO4)CCN1C [NSC785163] | 34.56 | 
O=C1CC(c2ccccc2)Oc2ccccc21 (stereo not shown) [NSC50393] | 103.95 | 
O=c1ccc2nc3ccc(O)cc3oc-2c1 [NSC12097] | 169.88 | 
CSC[S@@+]([O-])CC(CO)NC(=O)/C=C/c1c(C)[nH]c(=O)[nH]c1=O (stereo partly shown) [NSC59729] | 102.04 | 
CCCCC[C@@H](O)[C@H]1C(=O)O[C@H](C)[C@@H](O)/C=C/C=C/C=C/C=C/C=C(\C)[C@@H](O)[C@H](O)[C@H](O)C[C@H](O)C[C@H](O)C[C@H](O)C[C@H](O)C[C@@H]1O [NSC105388] | 86.99 | 
O[C@@H]1[C@@H](O)[C@@H](O)CN2CC[C@H](O)[C@@H]12 [NSC614552] | 134.45 | 
COc1cc2c(cc1OC)C13CCN4CC5=CCOC(CC(=O)O)C(C5CC41)C3N2 (stereo not shown) [NSC121865] | 122.60 | 
CCCCCCCCCC[C@H](C(=O)O)[C@]1(C(=O)O)CCC(=O)O1 [NSC244387] | 146.01 | 
CO[C@@]12[C@H](COC(N)=O)C3=C(C(=O)C(C)=C(N)C3=O)N1C[C@H]1[C@@H]2N1C (stereo partly shown) [NSC56410] | 73.33 | 
N=C(N)CCNC(=O)C1CCC(N)=N1 (stereo not shown) [NSC72942] | 100.21 | 
C[C@]12C(=O)C=CCC1=CC[C@@H]1[C@@H]2CC[C@]2(O)C(=O)O[C@@]3(C)[C@H]4C[C@]5(C)[C@@H](CO[C@@]16O[C@@]32[C@H]5C6=O)C(=O)O4 [NSC287088] | 131.80 | 

SMILES | IN-GCN2 interaction (%) | further results
O=c1c(O)cccc2cc(O)c(O)c(O)c12 [NSC35676] | 61.12 | 
CO/N=C1\CC(C)N2C(=O)C(C(C)C)NC(=O)C(NC(=O)c3c4nc5c(C(=O)NC6C(=O)NC(C(C)C)C(=O)N7C(C)CC(O)C7C(=O)N(C)CC(=O)N(C)C(C(C)C)C(=O)OC6C)ccc(C)c5oc-4c(C)c(=O)c3N)C(CO)OC(=O)C(C)N(C)C(=O)CN(C)C(=O)C12 (stereo not shown) [NSC237671] | 81.33 | 
COc1ccc2c(c1OC)-c1c3c(cc4c1[C@H](C2)N(C)CC4)OCO3 [NSC785162] | 46.45 | 
Nc1nc2c(c(=O)[nH]1)N(C=O)C(CNc1ccc(C(=O)N[C@@H](CCC(=O)O)C(=O)O)cc1)CN2 (stereo partly shown) [NSC3590] | 94.67 | 
COc1cc2c(c3c1c(=O)c1ccccc1n3C)C=CC(C)(C)O2 [NSC403169] | 89.07 | 
CO[C@@H]1/C=C/C=C(\C)Cc2cc(O)c(Cl)c(c2)N(C)C(=O)C[C@H](OC(=O)C(C)C)[C@]2(C)O[C@H]2[C@H](C)[C@@H]2C[C@@]1(O)NC(=O)O2 [NSC314018] | 97.15 | 
C/C(=C\CC1=C(O)c2ccccc2C(=O)C1=O)CO [NSC24872] | 132.67 | 
COC(=O)C1C(O)C(C)C(O)OC1C(C)C(O)C(C)C=CC=C(C)C(=O)Nc1c(C)c(OC(C)=O)c2c(c1O)C(=O)C(C)=C1OCOC(C(C)=CC(C)=O)=C12 (stereo not shown) [NSC169627] | 26.60 | 
CC(=O)OC1CCC2(C)C(=CCC3C2CCC2(C)C3CC3OC4(CCC(C)CN4)C(C)C32)C1 (stereo not shown) [NSC96021] | 132.69 | 
COc1cc(C)c2c(c1C=O)Oc1c(c(C)c(O)c3c1C(O)OC3=O)OC2=O (stereo not shown) [NSC87511] | 159.91 | 
CCC(C)(O)c1cnc(CC(C)C)c(=O)n1O (stereo not shown) [NSC127445] | 137.47 | 
CO[C@H]1[C@@H](O)[C@@H](C)O[C@H](O[C@H]2[C@H](Oc3cccc4c(O)c5c(=O)oc6ccc(C)c7c(=O)oc(c34)c5c67)O[C@H](C)[C@H](O)[C@@H]2O)[C@@H]1O [NSC5159] | 121.88 | 
COC(=O)[C@@]12OC[C@]34[C@H]([C@@H](O)[C@@H]1O)[C@@]1(C)CC(=O)C(O)=C(C)[C@@H]1C[C@H]3OC(=O)[C@H](OC(=O)/C=C(\C)C(C)C)[C@@H]24 [NSC165563] | 97.95 | 
O=P(O)(O)OC1OC(CO)C(O)C(O)C1O (stereo not shown) [NSC44138] | 105.48 | 
COc1ccc(-c2cc(=O)c3ccc(O)cc3o2)cc1OC [NSC123383] | 118.02 | 
Br.CN1CCc2cc3c(cc2C1)OCO3 [NSC121859] | 114.20 | 
COc1ccc(CC2C(=O)NC(C)C(=O)N(C)C3C(=O)N(C)C(Cc4ccc(O)c(c4)Oc4ccc(cc4)C3O)C(=O)NC(C)C(=O)NC(C)C(=O)N2C)cc1 (stereo not shown) [NSC259968] | 109.81 | 
[O-][N+]12CCCCC1CCCC2CO (stereo not shown) [NSC34552] | 80.42 | 
C[C@H]1CCC/C=C/[C@@H]2C[C@H](O)C[C@H]2[C@H](O)/C=C/C(=O)O1 [NSC89671] | 129.13 | 
